How the values were obtained:
HEK 293 cells = assay: Depletion of intracellular Ca2+ stores in LTRPC3-HA- and vector-transfected HEK 293 cells (FLIPR); assay type: cell-based; settings: no external Ca^2+
LTRPC3 [1] = target: T1, LTRPC3 (Homo sapiens, UniProt Q9HCF6, R1695Q); assay: FLIPR Fluo-4 Ca2+ entry in LTRPC3-transfected HEK 293 cells; assay type: cell-based; settings: 100 μM Gd^3+, nominally Ca^2+-free medium
T1 construct: the complete open reading frame of LTRPC3 with a C-terminal HA tag was transiently transfected into HEK 293 cells; expressed in transfected cells; host or cells: HEK 293 cells, transient transfection with pcDNA3.1/Hygro-LTRPC3-HA

LTRPC3 [2] = target: T1, LTRPC3; assay: as above; assay type: cell-based; settings: for effect on LTRPC3 mediated Ca^2+ currents / entry (in words): 100 μM for 10 min, 1 mM Ca^2+ solution, then 10 mM Ca^2+; for block of LTRPC3 Ca^2+ currents: pre-treatment with 100 μM, 1 mM Ca^2+ present, stimulated by adding 10 mM Ca^2+ (FIG. 19C)
Description: […] (A), or 50 μM carbachol (B) was first added to LTRPC3 expressing HEK 293 cells in the absence of external Ca^2+. After 9 minutes, 2 mM Ca^2+ solution was added to the cell medium at the indicated times.Currents for vector transfected HEK 293 cells, and LTRPC3 expressing HEK 293 cells are labeled accordingly. […] Cells loaded with Fluo-4 were incubated in 1 mM Ca^2+ solution and treated with 100 μM of La^3+ (“w/La^3+”), Gd^3+ (“w/Gd^3+”) or without blockers (“w/o blocker”) for 10 min prior to the addition of 10 mM Ca^2+ to the cell medium as indicated. Curves represent averages of three independent experiments, each involving at least 8 wells per condition. Physiometric methods were performed as described in Example 8 herein.
(§1) Panels A, C and E show results obtained for vector-transfected cells, while Panels B, D and F show results obtained for TRPM3-transfected cells. […] Cells loaded with Fluo-4 were incubated in 1 mM Ca^2+ solution and treated with 100 μM of Gd^3+ (red) or without blockers (black) for 10 min prior to the addition of 10 mM Ca^2+ to the bath solution as indicated. […] Cells loaded with Fluo-4 were incubated in a nominally Ca^2+-free media and treated without blockers (black) or with 100 μM of Gd^3+ (red) for 10 min prior to the addition of 2 μM TG (Panels C and D, first arrow) or 50 μM CCh (Panels E and F, first arrow), Ca^2+ entry was stimulated by the bath addition of […] (second arrow). Representative traces from one of three independent experiments are shown; each trace is the mean of 12 wells per condition. Physiometric methods were performed as described in Example 10 herein.
(§2) Moreover, physiometric studies have shown that LTRPC3 is a functional Ca^2+ permeable channel (see FIGS. 18 and 19, and Example 7). LTRPC3 function was assessed using a Fluorometric Imaging Plate Reader (FLIPR™) that measures real-time intracellular fluorescence changes. Cells transiently transfected with vector or LTRPC3-HA were loaded with the cytoplasmic Ca^2+ indicator Fluro-4 in a 1 mM Ca^2+ solution. […] The non-transfected cells were indistinguishable from the vector-transfected cells (data not shown). Therefore, LTRPC3 is a constitutively active channel capable of mediating Ca^2+ influx.
The lanthamides, gadolinium (Gd^3+) and lanthanum (La^3+), are noneselective Ca^2+-permeable channel blockers, often used as part of the characterization of overexpressed TRP channels. […] In the presence of 1 mM Ca^2+ in which endogenous SOCs is minimally activated (FIG. 18A), pre-treatment with 100 μM of La^3+and Gd^3+blocked LTRPC3 Ca^2+ currents, stimulated by adding 10 mM Ca^2+, by 67 and 39%, respectively.
Additional experiments were performed to further confirm the Ca^2+ store-depleted activation of LTRPC3 using Gd^3+. The effects of 100 μM Gd^3+ on Ca^2+ permeability were tested in vector- and LTRPC3-transfected cells. […] In contrast, 100 μM Gd^3+ inhibited Ca^2+ entry, induced by adding 10 mM Ca^2+, by 53% in LTRPC3-transfected cells (see FIG. 22B). Gd^3+ reduced fluorescence units in vector-transfected cells from 1470±140 to −58±8 and in LTRPC3-transfected cells from 6000±322 to 2080±199 (n=12). Fluorescence values were measured 150 seconds after adding 10 mM Ca^2+ and percent blockade was calculated as 1 minus FLTRPC3−FVector in the presence of Gd^3+ divided by FLTRPC3−FVector without blocker. The effects of Gd^3+ on LTRPC3-mediated Ca^2+ entry, induced by 10 mM Ca^2+, in the presence of thapsigargin or carbachol was also examined. Cells were incubated in nominally Ca^2+-free medium for thapsigargin and carbachol experiments. Gd^3+ inhibited Ca^2+ entry by 51% after depletion of intracellular stores with thapsigargin (see FIG. 22B). Gd^3+ reduced peak fluorescence after 10 mM Ca^2+ addition in vector-transfected cells from 26444±2410 to 1316±60 and in LTRPC3-transfected cells from 37676±2425 to 6783±250 (see FIGS. 22C and D, respectively; n=12). […]

[3] = test system: endogenous Ca^2+ entry pathway in HEK 293 cells; assay: FLIPR Fluo-4 Ca2+ entry in vector-transfected HEK 293 cells (endogenous pathway); assay type: cell-based; settings: 100 μM Gd^3+
Description: as §1, §2
To further address the mechanism of LTRPC3-mediated Ca^2+ entry, similar Ca^2+ addition experiments were performed on transfected cells incubated (˜30 min) in a nominally Ca^2+-free solution. Previous studies have shown that lowering extracellular Ca^2+ concentration below physiological levels can deplete intracellular Ca^2+ stores in many cell types including HEK 293 (EMBO J. 17, 4274-4282, (1998)). […]
Additional experiments were performed to further confirm the Ca^2+ store-depleted activation of LTRPC3 using Gd^3+. […] Gd^3+ reduced fluorescence units in vector-transfected cells from 1470±140 to −58±8 and in LTRPC3-transfected cells from 6000±322 to 2080±199 (n=12). Fluorescence values were measured 150 seconds after adding 10 mM Ca^2+ and percent blockade was calculated as 1 minus FLTRPC3−FVector in the presence of Gd^3+ divided by FLTRPC3−FVector without blocker. […] Gd^3+ reduced peak fluorescence after 10 mM Ca^2+ addition in vector-transfected cells from 26444±2410 to 1316±60 and in LTRPC3-transfected cells from 37676±2425 to 6783±250 (see FIGS. 22C and D, respectively; n=12). […] Gd^3+ reduced peak Ca^2+ fluorescence in vector-transfected cells from 9327±466 to 453±15 and in LTRPC3-transfected cells from 14747±988 to 1975±79 (see FIGS. 22E and F, respectively; n=12).

[4] = picogram quantities to the female vomeronasal organ; female recipients; cited from earlier work
[5] = test system: nigral dopaminergic neurons; settings: gel foam implants in the striatum; cited from earlier work

T1 sequence (Q9HCF6 with tags, fused parts or gaps isoform Q9HCF6-2 R1670Q limits assumed): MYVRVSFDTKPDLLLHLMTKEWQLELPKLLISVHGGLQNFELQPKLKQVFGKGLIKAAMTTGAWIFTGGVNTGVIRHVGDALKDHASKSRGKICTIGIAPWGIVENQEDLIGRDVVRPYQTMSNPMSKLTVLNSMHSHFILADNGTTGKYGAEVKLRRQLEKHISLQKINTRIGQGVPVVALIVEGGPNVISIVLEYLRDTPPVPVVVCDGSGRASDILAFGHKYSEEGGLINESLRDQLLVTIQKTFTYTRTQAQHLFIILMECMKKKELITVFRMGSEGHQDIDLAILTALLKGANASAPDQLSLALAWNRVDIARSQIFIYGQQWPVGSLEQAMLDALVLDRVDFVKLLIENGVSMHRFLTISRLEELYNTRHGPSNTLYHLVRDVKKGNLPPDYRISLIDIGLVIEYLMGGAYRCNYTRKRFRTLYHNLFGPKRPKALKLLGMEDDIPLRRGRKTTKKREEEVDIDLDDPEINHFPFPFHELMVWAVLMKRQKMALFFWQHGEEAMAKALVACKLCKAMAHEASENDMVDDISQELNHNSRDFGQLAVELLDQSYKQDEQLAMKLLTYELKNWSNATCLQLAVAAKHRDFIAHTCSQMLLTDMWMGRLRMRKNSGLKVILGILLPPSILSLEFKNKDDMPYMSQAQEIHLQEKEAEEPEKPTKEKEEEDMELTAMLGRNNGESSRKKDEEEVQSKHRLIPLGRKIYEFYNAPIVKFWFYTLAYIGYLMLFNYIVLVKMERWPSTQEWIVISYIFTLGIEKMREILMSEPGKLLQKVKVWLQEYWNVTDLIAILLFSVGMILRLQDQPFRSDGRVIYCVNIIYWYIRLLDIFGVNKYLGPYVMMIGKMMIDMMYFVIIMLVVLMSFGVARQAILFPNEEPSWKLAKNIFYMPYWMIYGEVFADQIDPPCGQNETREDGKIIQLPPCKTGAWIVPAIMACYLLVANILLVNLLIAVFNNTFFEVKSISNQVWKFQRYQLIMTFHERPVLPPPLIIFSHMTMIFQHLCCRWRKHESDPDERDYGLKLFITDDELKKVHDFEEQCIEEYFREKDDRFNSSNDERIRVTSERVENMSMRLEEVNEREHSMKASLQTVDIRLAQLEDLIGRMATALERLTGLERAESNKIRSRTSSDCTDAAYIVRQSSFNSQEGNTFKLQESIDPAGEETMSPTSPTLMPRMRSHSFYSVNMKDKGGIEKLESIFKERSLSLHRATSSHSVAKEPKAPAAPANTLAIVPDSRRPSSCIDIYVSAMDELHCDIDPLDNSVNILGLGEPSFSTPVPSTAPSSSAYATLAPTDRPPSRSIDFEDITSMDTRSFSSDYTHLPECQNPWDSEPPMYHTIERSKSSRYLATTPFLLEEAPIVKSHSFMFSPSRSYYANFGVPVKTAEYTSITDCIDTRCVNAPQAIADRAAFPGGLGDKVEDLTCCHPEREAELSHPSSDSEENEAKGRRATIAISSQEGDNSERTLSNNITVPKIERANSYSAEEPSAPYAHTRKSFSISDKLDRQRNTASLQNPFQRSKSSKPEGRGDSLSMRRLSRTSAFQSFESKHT

Molecule: C[N+](C)(C)CCOC(N)=O [CCh, Carbachol]
- intracellular Ca^2+ response (in words) (HEK 293 cells; 50 μM CCh, LTRPC3- and vector-transfected cells): transient and rapid intracellular Ca^2+ increase

Molecule: [Gd+3] [Gd^3+, gadolinium]
- inhibition of Ca^2+ entry after depletion of intracellular stores with carbachol (LTRPC3 [1]; 10 mM Ca^2+ addition): 72%
- inhibition of Ca^2+ entry after depletion of intracellular stores with thapsigargin (LTRPC3 [1]; 10 mM Ca^2+ addition): 51%
- peak Ca^2+ fluorescence in LTRPC3-transfected cells, carbachol (LTRPC3 [1]; store depletion with carbachol, n=12): 1975±79
- peak fluorescence after 10 mM Ca^2+ addition in LTRPC3-transfected cells, thapsigargin (LTRPC3 [1]; store depletion with thapsigargin, n=12): 6783±250
- fluorescence units in LTRPC3-transfected cells in the presence of Gd^3+ (LTRPC3 [2]; 100 μM Gd^3+, 1 mM Ca^2+, 150 seconds after adding 10 mM Ca^2+, n=12): 2080±199 fluorescence units
- inhibition of Ca^2+ entry in LTRPC3-transfected cells (percent blockade) (LTRPC3 [2]; 100 μM Gd^3+, cells in 1 mM Ca^2+, entry induced by adding 10 mM Ca^2+, 150 seconds, vector signal subtracted): 53%
- effect on LTRPC3 mediated Ca^2+ currents / entry (in words) (LTRPC3 [2]): partially inhibited
- block of LTRPC3 Ca^2+ currents (LTRPC3 [2]): 39%
- fluorescence units in vector-transfected cells in the presence of Gd^3+ ([3]; 1 mM Ca^2+, 150 seconds after adding 10 mM Ca^2+, n=12): −58±8 fluorescence units
- effect on minimal Ca^2+ influx in vector-transfected cells (in words) ([3]; 1 mM Ca^2+, addition of 10 mM Ca^2+): strongly inhibited
- peak Ca^2+ fluorescence in vector-transfected cells, carbachol ([3]; store depletion with carbachol, nominally Ca^2+-free medium, n=12): 453±15
- peak fluorescence after 10 mM Ca^2+ addition in vector-transfected cells, thapsigargin ([3]; store depletion with thapsigargin, nominally Ca^2+-free medium, n=12): 1316±60

Molecule: [La+3] [La^3+, lanthanum]
- effect on LTRPC3 mediated Ca^2+ currents / entry (in words) (LTRPC3 [2]): inhibited
- block of LTRPC3 Ca^2+ currents (LTRPC3 [2]): 67%

Molecule: C[C@@]12C=CC[C@H]1[C@@H]1CCC3=CC(=O)CC[C@]3(C)[C@H]1CC2 [androstadienone]
- nervousness, tension and other negative feelings [4]: significant reduction

Molecule: C/C=C(/C)C(=O)O[C@H]1C(C)=C2[C@H]([C@@H]1OC(=O)CCCCCCC)[C@@](C)(OC(C)=O)C[C@H](OC(=O)CCC)[C@@]1(O)[C@H]2OC(=O)[C@@]1(C)O [thapsigargin]
- depletion of Ca^2+ stores (in words) (HEK 293 cells; 2 μM thapsigargin, LTRPC3-HA- and vector-transfected cells): equivalently depleted

Molecule: FGF-2: FGF-2 (basic FGF), fibroblast growth factor
- protection of nigral dopaminergic neurons from the toxicity associated with MPTP exposure [5]: near complete protection
